# Experimental data: patent US11053204B2, “Pyrimidinyloxy benzene derivatives as herbicides” (FMC Corporation, priority 2015, dated 2021)
# Assays:
# Assay type in all cases: in vivo
# [1] = system: ryegrass, Italian (Italian ryegrass, Lolium multiflorum); test: Test C preemergence, plant response rating; details: Preemergence
# In short: (§1)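 Visual injury score, 0 = no effect, 100 = complete control, assigned against untreated controls after 13 to 15 d in the greenhouse. Compounds were applied in a surfactant-containing non-phytotoxic solvent mix, preemergence to seeded loam/sand or silt loam soil, or postemergence to 1- to 4-leaf plants (2 to 18 cm).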
# [2] = system: crabgrass, large (large crabgrass, Digitaria sanguinalis); test: Test C preemergence, plant response rating; details: Preemergence
# In short: as §1
# [3] = system: wheat (winter wheat, Triticum aestivum); test: Test C preemergence, plant response rating; details: Preemergence
# In short: as §1
# [4] = system: nutsedge, yellow (yellow nutsedge, Cyperus esculentus); test: Test C preemergence, plant response rating; details: Preemergence
# In short: as §1
# corn (Zea mays) = test: Test C preemergence, plant response rating; details: Preemergence
# In short: as §1
# [5] = system: lambsquarters (Chenopodium album); test: Test C preemergence, plant response rating; details: Preemergence
# In short: as §1
# [6] = system: waterhemp (common waterhemp, Amaranthus rudis); test: Test C preemergence, plant response rating; details: Preemergence
# In short: as §1
# [7] = system: velvetleaf (Abutilon theophrasti); test: Test C preemergence, plant response rating; details: Preemergence
# In short: as §1
# [8] = system: foxtail, giant (giant foxtail, Setaria faberii); test: Test C preemergence, plant response rating; details: Preemergence
# In short: as §1
# [9] = system: ragweed (common ragweed, Ambrosia elatior); test: Test C preemergence, plant response rating; details: Preemergence
# In short: as §1
# [10] = system: morningglory (Ipomoea coccinea); test: Test C preemergence, plant response rating; details: Preemergence
# In short: as §1
# soybean (Glycine max) = test: Test C preemergence, plant response rating; details: Preemergence
# In short: as §1
# [11] = system: oilseed rape (Brassica napus); test: Test C preemergence, plant response rating; details: Preemergence
# In short: as §1
# [12] = system: blackgrass (Alopecurus myosuroides); test: Test C preemergence, plant response rating; details: Preemergence
# In short: as §1
# [13] = system: wheat (winter wheat, Triticum aestivum); test: Test C postemergence, plant response rating
# In short: as §1
# [14] = system: velvetleaf (Abutilon theophrasti); test: Test C postemergence, plant response rating
# In short: as §1
# [15] = system: barnyardgrass (Echinochloa crus-galli); test: Test C postemergence, plant response rating; details: for Plant response rating, Barnyardgrass: scale 0 to 100; for Barnyardgrass plant response rating: scale 0 to 100 (0 no effect, 100 complete control)
# In short: as §1
# [16] = system: foxtail, giant (giant foxtail, Setaria faberii); test: Test C postemergence, plant response rating; details: for Foxtail, Giant plant response rating: scale 0 to 100 (0 no effect, 100 complete control)
# In short: as §1
# [17] = system: morningglory (Ipomoea coccinea); test: Test C postemergence, plant response rating; details: for Morningglory plant response rating: scale 0 to 100 (0 no effect, 100 complete control)
# In short: as §1
# [18] = system: oilseed rape (Brassica napus); test: Test C postemergence, plant response rating; details: for Oilseed Rape plant response rating: scale 0 to 100 (0 no effect, 100 complete control)
# In short: as §1
# [19] = system: blackgrass (Alopecurus myosuroides); test: Test C postemergence, plant response rating; details: for Plant response rating, Blackgrass: scale 0 to 100; for Blackgrass plant response rating: scale 0 to 100 (0 no effect, 100 complete control)
# In short: as §1
# [20] = 125 g ai/ha, scale 0 to 100 (0 no effect, 100 complete control)
smiles,measurement,setting,value
O=C(CCCC(F)(F)F)c1c(Cl)cccc1Oc1ncc(Cl)cn1 [Compound 143],"Plant response rating, Ryegrass, Italian","[1]; 125 g ai/ha, scale of 0 to 100",45
same,"Plant response rating, Ryegrass, Italian","[1]; 31 g ai/ha, scale 0 to 100",20
same,"Plant response rating, Ryegrass, Italian","[1]; 62 g ai/ha, scale 0 to 100",30
same,"Plant response rating, Crabgrass, Large","[2]; 125 g ai/ha, scale of 0 to 100",100
same,"Plant response rating, Crabgrass, Large","[2]; 16 g ai/ha, scale 0 to 100",70
same,"Plant response rating, Crabgrass, Large","[2]; 31 g ai/ha, scale 0 to 100",100
same,"Plant response rating, Crabgrass, Large","[2]; 62 g ai/ha, scale 0 to 100",100
same,"Plant response rating, Wheat","[3]; 125 g ai/ha, scale of 0 to 100",0
same,"Plant response rating, Wheat","[3]; 31 g ai/ha, scale 0 to 100",0
same,"Plant response rating, Wheat","[3]; 62 g ai/ha, scale 0 to 100",0
same,"Plant response rating, Nutsedge, Yellow","[4]; 125 g ai/ha, scale of 0 to 100",5
same,"Plant response rating, Nutsedge, Yellow","[4]; 31 g ai/ha, scale 0 to 100",0
same,"Plant response rating, Nutsedge, Yellow","[4]; 62 g ai/ha, scale 0 to 100",0
same,"Plant response rating, Corn","corn (Zea mays); 125 g ai/ha, scale of 0 to 100",20
same,"Plant response rating, Corn","corn (Zea mays); 16 g ai/ha, scale 0 to 100",5
same,"Plant response rating, Corn","corn (Zea mays); 31 g ai/ha, scale 0 to 100",0
same,"Plant response rating, Corn","corn (Zea mays); 62 g ai/ha, scale 0 to 100",0
same,"Plant response rating, Lambsquarters","[5]; 125 g ai/ha, scale of 0 to 100",95
same,"Plant response rating, Lambsquarters","[5]; 31 g ai/ha, scale 0 to 100",10
same,"Plant response rating, Lambsquarters","[5]; 62 g ai/ha, scale 0 to 100",95
same,"Plant response rating, Waterhemp","[6]; 125 g ai/ha, scale of 0 to 100",100
same,"Plant response rating, Waterhemp","[6]; 31 g ai/ha, scale 0 to 100",98
same,"Plant response rating, Waterhemp","[6]; 62 g ai/ha, scale 0 to 100",100
same,"Plant response rating, Velvetleaf","[7]; 125 g ai/ha, scale of 0 to 100",70
same,"Plant response rating, Velvetleaf","[7]; 31 g ai/ha, scale 0 to 100",10
same,"Plant response rating, Velvetleaf","[7]; 62 g ai/ha, scale 0 to 100",40
same,"Plant response rating, Foxtail, Giant","[8]; 125 g ai/ha, scale of 0 to 100",100
same,"Plant response rating, Foxtail, Giant","[8]; 31 g ai/ha, scale 0 to 100",98
same,"Plant response rating, Foxtail, Giant","[8]; 62 g ai/ha, scale 0 to 100",100
same,"Plant response rating, Ragweed","[9]; 125 g ai/ha, scale of 0 to 100",5
same,"Plant response rating, Ragweed","[9]; 31 g ai/ha, scale 0 to 100",0
same,"Plant response rating, Ragweed","[9]; 62 g ai/ha, scale 0 to 100",0
same,"Plant response rating, Morningglory","[10]; 125 g ai/ha, scale of 0 to 100",25
same,"Plant response rating, Morningglory","[10]; 31 g ai/ha, scale 0 to 100",0
same,"Plant response rating, Morningglory","[10]; 62 g ai/ha, scale 0 to 100",5
same,"Plant response rating, Soybean","soybean (Glycine max); 125 g ai/ha, scale of 0 to 100",20
same,"Plant response rating, Soybean","soybean (Glycine max); 31 g ai/ha, scale 0 to 100",0
same,"Plant response rating, Soybean","soybean (Glycine max); 62 g ai/ha, scale 0 to 100",15
same,"Plant response rating, Oilseed Rape","[11]; 125 g ai/ha, scale of 0 to 100",98
same,"Plant response rating, Oilseed Rape","[11]; 31 g ai/ha, scale 0 to 100",5
same,"Plant response rating, Oilseed Rape","[11]; 62 g ai/ha, scale 0 to 100",80
same,"Plant response rating, Blackgrass","[12]; 125 g ai/ha, scale of 0 to 100",75
same,"Plant response rating, Blackgrass","[12]; 16 g ai/ha, scale 0 to 100",5
same,"Plant response rating, Blackgrass","[12]; 31 g ai/ha, scale 0 to 100",75
same,"Plant response rating, Blackgrass","[12]; 62 g ai/ha, scale 0 to 100",80
same,"Plant response rating, Wheat","[13]; 16 g ai/ha, scale of 0 to 100",5
same,"Plant response rating, Wheat","[13]; 31 g ai/ha, scale 0 to 100",10
same,Wheat plant response rating,[13]; [20],30
same,"Plant response rating, Velvetleaf","[14]; 16 g ai/ha, scale of 0 to 100",35
same,"Plant response rating, Velvetleaf","[14]; 31 g ai/ha, scale 0 to 100",55
same,Velvetleaf plant response rating,[14]; [20],70
same,"Plant response rating, Barnyardgrass",[15]; 16 g ai/ha,5
same,"Plant response rating, Barnyardgrass",[15]; 31 g ai/ha,10
same,Barnyardgrass plant response rating,[15]; 62 g ai/ha,10
same,Barnyardgrass plant response rating,[15]; 125 g ai/ha,20
same,"Plant response rating, Foxtail, Giant","[16]; 16 g ai/ha, scale of 0 to 100",20
same,"Plant response rating, Foxtail, Giant","[16]; 31 g ai/ha, scale 0 to 100",10
same,"Foxtail, Giant plant response rating",[16]; 62 g ai/ha,10
same,"Foxtail, Giant plant response rating",[16]; 125 g ai/ha,25
same,"Plant response rating, Morningglory","[17]; 16 g ai/ha, scale of 0 to 100",15
same,"Plant response rating, Morningglory","[17]; 31 g ai/ha, scale 0 to 100",70
same,Morningglory plant response rating,[17]; 62 g ai/ha,50
same,Morningglory plant response rating,[17]; 125 g ai/ha,65
same,"Plant response rating, Oilseed Rape","[18]; 16 g ai/ha, scale of 0 to 100",85
same,"Plant response rating, Oilseed Rape","[18]; 31 g ai/ha, scale 0 to 100",80
same,Oilseed Rape plant response rating,[18]; 62 g ai/ha,95
same,Oilseed Rape plant response rating,[18]; 125 g ai/ha,100
same,"Plant response rating, Blackgrass",[19]; 16 g ai/ha,10
same,"Plant response rating, Blackgrass",[19]; 31 g ai/ha,15
same,Blackgrass plant response rating,[19]; 62 g ai/ha,15
same,Blackgrass plant response rating,[19]; 125 g ai/ha,40
